Type in all cases: cell-based
The target of test [1] is T1, PPARα (Mus musculus, UniProt P23204).
T1 construct: gene Ppara; GAL4-mPPARα
T1 sequence (P23204 1-468): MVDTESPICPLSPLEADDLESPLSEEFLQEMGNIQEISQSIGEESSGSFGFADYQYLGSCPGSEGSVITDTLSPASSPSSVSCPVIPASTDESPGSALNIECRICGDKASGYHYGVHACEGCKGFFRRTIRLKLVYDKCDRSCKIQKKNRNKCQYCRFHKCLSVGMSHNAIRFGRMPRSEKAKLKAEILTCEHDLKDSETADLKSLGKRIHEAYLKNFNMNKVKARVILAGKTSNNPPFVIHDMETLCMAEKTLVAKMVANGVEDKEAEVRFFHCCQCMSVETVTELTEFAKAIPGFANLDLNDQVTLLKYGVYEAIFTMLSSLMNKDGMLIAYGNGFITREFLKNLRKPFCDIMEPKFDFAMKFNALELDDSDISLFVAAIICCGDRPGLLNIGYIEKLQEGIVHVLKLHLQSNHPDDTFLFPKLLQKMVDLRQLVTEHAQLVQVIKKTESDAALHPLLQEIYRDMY
The test is described as follows: GAL4/UAS-luciferase reporter assay in transfected HEK293 cells, positive control agonist.

Another test concerns the target T2, PPARγ (Mus musculus, UniProt P37238).
T2 construct: gene Pparg; GAL4-mPPARγ
T2 sequence (P37238 1-505): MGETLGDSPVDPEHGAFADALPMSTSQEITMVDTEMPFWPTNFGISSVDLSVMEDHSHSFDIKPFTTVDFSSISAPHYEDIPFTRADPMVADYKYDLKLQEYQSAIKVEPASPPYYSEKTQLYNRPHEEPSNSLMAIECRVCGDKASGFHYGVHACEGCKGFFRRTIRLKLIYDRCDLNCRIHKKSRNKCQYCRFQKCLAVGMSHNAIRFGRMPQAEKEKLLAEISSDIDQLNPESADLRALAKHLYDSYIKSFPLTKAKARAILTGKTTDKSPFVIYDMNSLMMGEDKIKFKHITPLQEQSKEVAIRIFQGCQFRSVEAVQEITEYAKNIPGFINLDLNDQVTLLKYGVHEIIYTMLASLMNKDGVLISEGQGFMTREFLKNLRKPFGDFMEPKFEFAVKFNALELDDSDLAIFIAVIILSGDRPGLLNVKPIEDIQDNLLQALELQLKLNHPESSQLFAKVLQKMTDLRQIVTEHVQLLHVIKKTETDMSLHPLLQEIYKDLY
The test is described as follows: GAL4/UAS-luciferase reporter assay in transfected HEK293 cells, dose-response (partial agonist).

Test [2] deals with T1, PPARα. The test is described as above.
The next test has as its target T3, PPARδ (Mus musculus, UniProt P35396).
T3 construct: gene Ppard; GAL4-mPPARδ
T3 sequence (P35396 210-440 limits assumed): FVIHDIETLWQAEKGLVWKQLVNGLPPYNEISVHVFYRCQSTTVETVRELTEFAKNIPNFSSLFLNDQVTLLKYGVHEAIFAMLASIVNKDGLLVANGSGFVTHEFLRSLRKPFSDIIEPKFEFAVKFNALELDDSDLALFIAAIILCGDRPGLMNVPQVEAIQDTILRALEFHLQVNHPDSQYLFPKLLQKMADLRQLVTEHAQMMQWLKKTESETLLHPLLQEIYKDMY
The test is described as above.

For the compound `Cc1cccc(Nc2cc(Cl)nc(SCC(=O)O)n2)c1C` [WY14643], the “GAL4/UAS-luciferase reporter assay in transfected HEK293 cells, positive control” value on PPARα [1] is recorded as “full dose–response curve comparing LDT409 against positive controls for each mouse PPAR (WY, PPARα agonist;”.

In general, EC50 refers to the concentration giving half of the maximal effect. For the compound `CCCCCCCCCCCCCCCc1cccc(OC(C)(C)C(=O)O)c1` [LDT409], the values for the EC50 at PPARγ, on PPARα [2] and at PPARδ were 100 nM, 100 nM and 1000 nM, respectively.

Source of the values: article PMC11170206, “A novel fatty acid mimetic with pan-PPAR partial agonist activity inhibits diet-induced obesity and metabolic dysfunction-associated steatotic liver disease” (Molecular Metabolism, 2024).
